Measured values from US11484608B2, “Non-invasive assessment of hepatic mitochondrial metabolism by positional isotopomer NMR tracer analysis (PINTA)” (YALE UNIVERSITY, priority 2017, dated 2022).
Like-named read-outs stand apart in the source and are kept apart here.

Experiments:
[1] = system: hepatic mitochondrial fluxes (VPC, VCS); assay: PINTA / ex vivo NMR tracer study in rats infused with [3-^13C]lactate and [3-^3H]glucose (Example 1); details: for VPDH/VCS (%) / VPK+ME/VPC+PDH (%): rat liver; for VPDH/VCS (%) / VPK+ME/VPC+PDH (%) / VPC/VEGP (%): 120 min [3-^13C]lactate infusion, mean ± S.E.M.; for VPC/VEGP (%): rats
Source text: Male Sprague-Dawley rats (˜10 weeks of age) were ordered from Charles River (Wilmington, Mass.) at ˜300 g and fed regular chow unless otherwise specified. […] Prior to studies, rats underwent surgery under general isoflurane anesthesia to place polyethylene catheters in the jugular vein and common carotid artery (PE90 and PE50 tubing, respectively; Instech, Plymouth Meeting, Pa.). After 1 week, recovery was verified by confirming that the rats had regained their surgical weight. Unless otherwise specified, all experiments were performed following an overnight fast (16 hrs food withdrawal prior to sacrifice). In both the rodent and human studies, data are represented as the mean of two technical replicates for each subject (i.e. two technical replicates per biological replicate). Sample sizes were selected to give power to detect moderate to large differences between groups (n=5-6 per group), and all animals were included in the final analysis.
The investigator performing the animal studies was not blinded for practical reasons, but the investigators analyzing fluxes were blinded as to the group allocation.
The flux calculations required the following equations using [^13C] glucose positional enrichment in plasma or liver, determined by NMR and GC/MS mass spectrometry. VPC is the rate of pyruvate carboxylase flux as determined from the anaplerotic flow into oxaloacetate (OAA). VCS is defined as the flux of the citrate synthase reaction in the citric acid cycle. […] G2 denotes [m+2] glucose arising from the condensation of two singly-labeled trioses.
GC/MS was used to measure m+1 and m+2 [^13C]glucose enrichment. The total m+1 and m+2 [^13C]glucose enrichment was measured using a pentaacetate derivative: plasma or liver samples were deproteinized using 5 volumes of methanol, dried, and derivatized with 75 μL of 1:1 acetic anhydride:pyridine. After heating to 65° C. for 20 min, the reaction was terminated by adding 25 μL methanol, and m+1 and m+2 (as well as m+3 . . . m+6) were determined by GC/MS (CI mode, m/z 331 [m], 332 [m+1], 333 [m+2], . . . 337 [m+6]). The m+1 and m+2 [^13C] enrichments of the glucose C4C5C6 fragment were determined by generating the aldonitrile pentapropionate derivative: plasma or NMR liver extract samples were dried under N2 gas, and 50 μl hydroxylamine hydrochloride (20 mg/ml in pyridine) were added. The samples were heated at 90° C. for 60 min, then 100 μl propionic anhydride was added, after which the samples were heated at 60° C. for 30 min. Finally, the samples were evaporated under N2 gas, resuspended in ethyl acetate, and the m+1 and m+2 enrichment of the glucose C4C5C6 fragment was measured by GC/MS.
[^13C]alanine enrichment was measured by GC/MS. [^13C] NMR spectroscopy using the BRUKER TOPSPIN® system was utilized to measure relative positional 13C-enrichment of glucose, and combined with the total [^13C]glucose enrichment ([m+1]+2*[m+2]) measured by GC/MS to calculate the positional enrichment of [13C]glucose.
Total [^13C]glutamate enrichment was determined by LC-MS/MS. Approximately 100 mg of liver tissue was weighed out and homogenized in 500 μl ice-cold methanol using a TissueLyser, then centrifuged at 4000 rpm for 10 minutes. The supernatant was then purified by centrifugation (4000 rpm, 10 min) through the PALL NANOSEP® filter (100K) (Port Washington, N.Y.). Glutamate 13C enrichment ([m+1], [m+2]) was then assessed by LC-MS/MS using an AB SCIEX QTRAP 6500 (Framingham, Mass.), equipped with a SHIMADZU ultra-fast liquid chromatography (UFLC) system (Columbia, Md.) and electrospray ionization (ESI) source with negative-ion detection. The measured ion pairs were 146/128 (m0), 147/129 (m+1), and 148/130 (m+2).
Positional enrichment of glucose, glutamate, and alanine was measured by 13C NMR.

[2] = system: primary mouse hepatocytes; assay: In vitro glucose production, VPC and lipolysis in isolated hepatocytes; format: cell-based; details: isolated hepatocytes, 1 mM hydroxymalonate
Procedure: For in vitro glucose production and lipolysis studies, primary mouse hepatocytes were isolated by the Yale Liver Center. Following removal of cell debris by Percoll density gradient centrifugation, cells were plated on 6-well collagen-I coated dishes (4.0×10^5 cells/well) in 2 ml recovery media (DMEM High Glucose containing 10% FBS, 2% penicillin-streptomycin, 100 nM dexamethasone, 1 nM insulin, and 10 mM HEPES). After incubation for 6 hr at 37° C. and 5% CO2, the attached cells were washed once in 1×PBS and then incubated overnight in 2 ml Low Glucose Culture Media (DMEM Low Glucose supplemented with 10% FBS, 2% penicillin-streptomycin and 10 mM HEPES for glucose production studies) or Serum Free Low Glucose Culture Media (DMEM Low Glucose supplemented with 0.5% fatty acid free BSA, 2% penicillin-streptomycin and 10 mM HEPES for lipolysis assays). […] After incubation for 8 hr at 37° C. and 5% CO2, cell culture media was collected for analysis of glucose, NEFA, and glycerol concentrations as described above. VPC was determined by measuring VPC/VEGP by PINTA as described above using 300 μL of the collected media, and multiplying this ratio by the measured glucose production rate. In a subset of studies, cells were incubated for 8 hr during the glucose production assay in media containing one of the following agents (all dissolved in 0.5% DMSO), or 0.5% DMSO vehicle: 20 μM ET-18-OCH3 (Santa Cruz), 100 μM U-73122 (Sigma), 30 nM thapsigargin (Sigma), 100 nM vasopressin (Sigma) 50 μM 2-APB (R&D Systems), 70 μM caffeine (Sigma), 1 mM malic enzyme inhibitor hydroxymalonate (Sigma). To inhibit PKA, hepatocytes were incubated in H-89 […] hydrate (Sigma, 25 μM) dissolved in media, or media lacking H-89 as a control. In the insulin treatment studies, hepatocytes were incubated in 1 nM insulin with 5% BSA and glucose production media for the duration of the glucose production assay. In the in vitro atglistatin study, hepatocytes were incubated in 10 μM atglistatin in 0.1% EtOH, or 0.1% EtOH vehicle. All values were normalized to total protein content determined from whole-cell lysates by a BCA protein assay (Thermo Fisher Scientific) according to the manufacturer's instructions and expressed as fold change verses vehicle-treated cells.

[3] = system: HPA axis, WAT lipolysis, and hepatic gluconeogenesis; format: in vivo, rat
Procedure: Blood samples were taken at 14, 16, and 18 hr of the fast for measurement of substrate/hormone concentrations and turnover of each tracer, as described below. […] Liver and muscle glycogen concentrations were assessed using amyloglucosidase digestion. Liver TAG content was measured using the method of Bligh and Dyer (Bligh and Dyer, Can. J. Biochem. Physiol. 37, 911-917, 1959): lipids were extracted from livers using 2:1 chloroform:methanol, and the Sekisui triglyceride-SL reagent was used to measure triglyceride content spectrophotometrically. Liver and muscle DAG content and liver acetyl- and malonyl-CoA concentrations were measured by LC-MS/MS as described by Yu and Perry (Yu, et al. J. Biol. Chem. 2002, 277, 50230-50236; Perry, et al., J. Clin. Invest. 2017, 127, 657-669). […] The samples were homogenized in […] ice-cold methanol using a TissueLyser and filtered through a Nanosep filter. LC-MS/MS (AbSCIEX 6500 QTRAP with a Shimadzu ultrafast liquid chromatography system, negative ion mode) was again used to monitor the relevant ion pairs: succinate and [^13C4]succinate, 117/99 and 121/103, respectively; malate and [^13C4]malate, 133/115 and 137/119, respectively; and citrate and [13C6]citrate, 191/173 and 197/179, respectively. […] Hepatic PKCε translocation, gluconeogenic enzyme protein expression, ApoB (antibody from Meridian Life Science, Memphis, Tenn.), and PGC1α (antibody from Santa Cruz Biotechnology, Dallas, Tex.) protein expression were assessed by western blot. Expression of each of these proteins was normalized to GAPDH.

[4] = system: HPA axis, WAT lipolysis, endogenous glucose production; assay: Leptin dose-response in streptozotocin-induced type 1 diabetic rats; format: in vivo, rat; details: T1D rats
Source text: Male Sprague-Dawley rats were ordered from Charles River Laboratories (Wilmington, Mass.) at ˜250 g and were group housed (3 per cage) for 1-2 weeks until they underwent surgery under general isoflurane anesthesia for placement of polyethylene catheters in the common carotid artery (PE50 tubing, Instech Solomon, Plymouth Meeting, Pa.), and the jugular vein (PE90 tubing, Instech), and/or the portal vein (PE50 tubing, Instech), after which they were singly housed until sacrifice. Unless otherwise specified, rats were fed a regular chow diet (Harlan Teklad #2018, Indianapolis, Ind.) throughout, and fasted as described below. […] In order to induce T1D, rats were injected with streptozotocin (65 mg/kg IP, Sigma Aldrich, St. Louis, Mo.) 24 hr prior to the start of a leptin infusion study and were fasted overnight 12 hr after streptozotocin injection.
In order to examine the physiologic impact of varying doses of leptin on glucose, hormones, and lipolysis, rats were infused with stepwise increasing doses of leptin during a continuous infusion of [1,2,3,4,5,6,6-^2H7]glucose, [U-^13C16]palmitate, [1,1,2,3,3-^2H5] glycerol, and [U-^13C4] β-hydroxybutyrate starting at hour 42 of a 48 hr fast. From 42-43.5 hr of the fast rats were infused with tracer only, from hours 43.5-45 they were infused with 20 pmol/(kg-min) leptin, from hours 45-46.5 they were infused with 60 pmol/(kg-min) leptin, and from 46.5-48 hr the infusion rate was 600 pmol/(kg-min). Blood samples were taken at 43.5, 45, 46.5, and 48 hr for measurement of substrate/hormone concentrations and turnover of each tracer, as described below. In the T1D leptin dose response studies, overnight (12 hr) fasted rats were infused with stepwise increasing dose of leptin during the same tracer infusion as described above. From 12-14 hr of the fast rats were infused with tracer only, from 14-16 hr they were infused with 50 pmol/(kg-min) leptin, and from hours 16-18 they were infused with 600 pmol/(kg-min) leptin. Blood samples were taken at 14, 16, and 18 hr of the fast for measurement of substrate/hormone concentrations and turnover of each tracer, as described below.

[5] = supraphysiologic leptin treatment
[6] = supraphysiologic leptin (˜1300 pM)

CNC[C@H](O)c1ccc(O)c(O)c1 [Epinephrine, epinephrine]
VPDH/VCS (%) [1]: 4.3 ± 1.0% | VPK+ME/VPC+PDH (%) [1]: 5.4 ± 0.1% | VPC/VEGP (%) [1]: 67 ± 2%

O=C(O)C(O)C(=O)O [ME inhibitor, hydroxymalonate]
VPDH/VCS (%) [1]: 2.0 ± 1.1% | VPK+ME/VPC+PDH (%) [1]: 7.9 ± 2.1% | VPC/VEGP (%) [1]: 50 ± 2% | basal or glucagon-stimulated glucose production or VPC [2]: no impact

[13CH3]C(O)C(=O)O (stereo not shown) [[3-^13C]lactate]
plasma lactate enrichment ([1]; rats infused with 40 μmol/(kg-min)): ~45%

leptin: leptin hormone infused at stepwise increasing doses
plasma FGF-21 concentrations ([3]; 48-hr fasted rats): dose-dependent reduction | plasma growth hormone concentrations ([3]; 48-hr fasted rats): no difference | plasma corticosterone ([3]; all three infusion rates): suppressed | plasma insulin concentrations ([3]; highest dose): increased | increase in plasma epinephrine and norepinephrine concentrations ([3]; highest infusion rate): 2- to 3 fold | fatty acid and glycerol turnover ([3]; physiologic leptin replacement): suppressed | plasma NEFA, glycerol, β-hydroxybutyrate, and lactate concentrations ([3]; physiologic leptin replacement): suppression | hepatic glucose production ([3]; plasma leptin ˜60 pM): lowered | plasma glucose concentrations ([3]; plasma leptin ˜60 pM): lowered | plasma glucose concentrations and hepatic glucose production ([3]; plasma leptin ˜150 pM and ˜1250 pM): unable to lower | plasma NEFA, glycerol, β-hydroxybutyrate, and lactate concentrations ([3]; supraphysiologic leptin infusions): increases | fatty acid and glycerol turnover [3, 5]: increased | hepatic acetyl-CoA content and β-hydroxybutyrate turnover [3, 5]: increases | HPA axis activity ([4]; both doses): suppressed | WAT lipolysis ([4]; leptin ˜60 pM): suppression | suppression of WAT lipolysis ([4]; leptin ˜1300 pM): abrogated | plasma glucose concentrations and endogenous glucose production rates ([4]; physiologic leptin replacement (˜60 pM)): marked reduction | growth hormone concentrations ([4]; supraphysiologic leptin): without any change | increase in plasma catecholamine concentrations [4, 6]: 4 fold | plasma glucose concentrations and endogenous glucose production [4, 6]: increases
